Source: patent US7390806B2, “Antibiotics containing borinic acid complexes and methods of use” (Anacor Pharmaceuticals, Inc., priority 2002, dated 2008)
Converted amounts (≈) assume the structure as drawn. Like-named read-outs stand apart in the source and are kept apart here.

Columns and labels:
[1] = system: S. epidermidis ATCC 12228; test: MIC determination, S. epidermidis ATCC 12228; assay type: cell-based, Staphylococcus epidermidis; conditions: for MIC: Staphylococcus epidermidis, read-out: MIC S. epidermidis ATCC 12228
S. pneumoniae ATCC 6301 = test: MIC determination, S. pneumoniae ATCC 6301; assay type: cell-based, Streptococcus pneumoniae; conditions: for MIC: Streptococcus pneumoniae; for MIC S. pneumoniae ATCC 6301: Table 1; for MIC S. pneumonia ATCC 6301: Table 2
[2] = system: M. catarrhalis ATCC 25238; test: MIC determination, M. catarrhalis ATCC 25238; assay type: cell-based; conditions: for MIC: Moraxella catarrhalis, ATCC25238, Table 1, read-out: MIC M. catarrhalis ATCC 25238; for MIC M. catarrhalis ATCC 25238: Table 1
E. faecium CT-26 = test: MIC determination, E. faecium CT-26; assay type: cell-based, Enterococcus faecium; conditions: for MIC: Enterococcus faecium, read-out: MIC E. faecium CT-26
H. influenzae ATCC 49766 = test: MIC determination, H. influenzae ATCC 49766; assay type: cell-based, Haemophilus influenzae; conditions: Table 2; for MIC: Haemophilus influenzae, ATCC49766
S. aureus ATCC 29213 = test: MIC determination, S. aureus ATCC 29213; assay type: cell-based, Staphylococcus aureus; conditions: for MIC: Staphylococcus aureus, read-out: MIC S. aureus ATCC 29213
E. faecalis ATCC 29212 = test: MIC determination, E. faecalis ATCC 29212; assay type: cell-based, Enterococcus faecalis; conditions: for MIC: Enterococcus faecalis, read-out: MIC E. faecalis ATCC 29212
[3] = ATCC6301, Table 1, read-out: MIC S. pneumoniae ATCC 6301
[4] = ATCC6301, Table 2, read-out: MIC S. pneumonia ATCC 6301

| Molecule | MIC ([1]; ATCC12228, Table 2) | MIC (E. faecium CT-26; CT26, Table 2) | MIC (H. influenzae ATCC 49766) | MIC (S. aureus ATCC 29213; ATCC29213, Table 2) | MIC (E. faecalis ATCC 29212; ATCC29212, Table 2) | MIC S. epidermidis ATCC 12228 ([1]; Table 2) | MIC S. pneumonia ATCC 6301 (S. pneumoniae ATCC 6301) | MIC E. faecium CT-26 (E. faecium CT-26; Table 2) | MIC H. influenzae ATCC 49766 (H. influenzae ATCC 49766) | MIC S. aureus ATCC 29213 (S. aureus ATCC 29213; Table 2) | MIC E. faecalis ATCC 29212 (E. faecalis ATCC 29212; Table 2) | also measured |
| --- | --- | --- | --- | --- | --- | --- | --- | --- | --- | --- | --- | --- |
| CO/N=C(\C(=O)N[C@@H]1C(=O)N2C(C(=O)O)=C(CSc3nc(=O)c(=O)[nH]n3C)CS[C@H]12)c1csc(N)n1 [Ceftriaxone, reference compound] | 1 µg/mL (≈ 1.8 µM) | 64 µg/mL (≈ 115 µM) | 0.12 µg/mL (≈ 0.216 µM) | 2 µg/mL (≈ 3.61 µM) | 64 µg/mL (≈ 115 µM) |  |  |  |  |  |  | MIC ([1]; ATCC12228, Table 1): 1 µg/mL (≈ 1.8 µM); MIC (S. pneumoniae ATCC 6301; [3]): 0.125 µg/mL (≈ 0.225 µM); MIC (S. pneumoniae ATCC 6301; [4]): < 0.125 µg/mL; MIC [2]: 0.125 µg/mL (≈ 0.225 µM); MIC (E. faecium CT-26; CT26, Table 1): 64 µg/mL (≈ 115 µM); MIC (S. aureus ATCC 29213; ATCC29213, Table 1): 2 µg/mL (≈ 3.61 µM); MIC (E. faecalis ATCC 29212; ATCC29212, Table 1): 64 µg/mL (≈ 115 µM) |
| Cc1onc(-c2ccccc2Cl)c1C(=O)N[C@@H]1C(=O)N2[C@@H]1SC(C)(C)[C@@H]2C(=O)O [Cloxacillin, reference compound] | 0.25 µg/mL (≈ 0.574 µM) | 64 µg/mL (≈ 147 µM) | 8 µg/mL (≈ 18.4 µM) | 0.12 µg/mL (≈ 0.275 µM) | 16 µg/mL (≈ 36.7 µM) |  |  |  |  |  |  | MIC ([1]; ATCC12228, Table 1): 0.25 µg/mL (≈ 0.574 µM); MIC (S. pneumoniae ATCC 6301; [3]): 0.125 µg/mL (≈ 0.287 µM); MIC (S. pneumoniae ATCC 6301; [4]): 0.12 µg/mL (≈ 0.275 µM); MIC [2]: 1 µg/mL (≈ 2.29 µM); MIC (E. faecium CT-26; CT26, Table 1): 64 µg/mL (≈ 147 µM); MIC (S. aureus ATCC 29213; ATCC29213, Table 1): 0.125 µg/mL (≈ 0.287 µM); MIC (E. faecalis ATCC 29212; ATCC29212, Table 1): 16 µg/mL (≈ 36.7 µM) |
| Oc1cccc2cccnc12 [Compound 100, 8-hydroxyquinoline] |  |  |  |  |  |  |  |  |  |  |  | MIC S. epidermidis ATCC 12228 ([1]; Table 1): 1 micrograms per ml; MIC S. pneumoniae ATCC 6301 (S. pneumoniae ATCC 6301): 2 micrograms per ml; MIC M. catarrhalis ATCC 25238 [2]: 1 micrograms per ml; MIC E. faecium CT-26 (E. faecium CT-26; Table 1): 2 micrograms per ml; MIC S. aureus ATCC 29213 (S. aureus ATCC 29213; Table 1): 2 micrograms per ml; MIC E. faecalis ATCC 29212 (E. faecalis ATCC 29212; Table 1): 4 micrograms per ml |
| CC1(C)O[B-](c2cccc(Cl)c2)(c2cccc(Cl)c2)[n+]2cccc(O)c21 [Compound 102] |  |  |  |  |  | 1 micrograms per ml | 0.25 micrograms per ml | 2 micrograms per ml | 64 micrograms per ml | 0.5 micrograms per ml | 64 micrograms per ml |  |
| CC1(C)O[B-](c2ccc(Cl)cc2)(c2ccc(Cl)cc2)[n+]2cccc(O)c21 [Compound 103] |  |  |  |  |  | 0.5 micrograms per ml | 0.5 micrograms per ml | 1 micrograms per ml | 64 micrograms per ml | 0.25 micrograms per ml | 4 micrograms per ml |  |
| OCc1ccccn1 [Compound 105, 2-hydroxymethylpyridine] | 4 µg/mL (≈ 36.7 µM) | 32 µg/mL (≈ 293 µM) | 4 µg/mL (≈ 36.7 µM) | 0.125 µg/mL (≈ 1.15 µM) | 32 µg/mL (≈ 293 µM) |  |  |  |  |  |  | MIC (S. pneumoniae ATCC 6301; [4]): 4 µg/mL (≈ 36.7 µM) |
| O=C(O)Cc1ccccn1 [Compound 106, 2-pyridylacetic acid] | 4 µg/mL (≈ 29.2 µM) | 64 µg/mL (≈ 467 µM) | 64 µg/mL (≈ 467 µM) | 0.5 µg/mL (≈ 3.65 µM) | 64 µg/mL (≈ 467 µM) |  |  |  |  |  |  |  |
| O=C(O)c1ncccc1OCCO [Compound 107] | 4 µg/mL (≈ 21.8 µM) | 8 µg/mL (≈ 43.7 µM) | 32 µg/mL (≈ 175 µM) | 0.125 µg/mL (≈ 0.682 µM) | 16 µg/mL (≈ 87.4 µM) |  |  |  |  |  |  |  |
| O=C(O)c1ncccc1OCCN1CCOCC1 [Compound 108] | 4 µg/mL (≈ 15.9 µM) | 2 µg/mL (≈ 7.93 µM) | 64 µg/mL (≈ 254 µM) | 0.25 µg/mL (≈ 0.991 µM) | 4 µg/mL (≈ 15.9 µM) |  |  |  |  |  |  |  |
| Cc1ccc([B-]2(c3ccc(C)c(Cl)c3)OC(=O)c3c(OCCCC(=O)O)ccc[n+]32)cc1Cl [Compound 109] |  |  |  |  |  | 4 micrograms per ml | 4 micrograms per ml | 16 micrograms per ml | 16 micrograms per ml | 1 micrograms per ml | 32 micrograms per ml |  |
| O=C(O)c1cccnc1C(=O)O [Compound 110, 3-carboxypicolinic acid] | 4 µg/mL (≈ 23.9 µM) | 8 µg/mL (≈ 47.9 µM) | 8 µg/mL (≈ 47.9 µM) | 0.125 µg/mL (≈ 0.748 µM) | 8 µg/mL (≈ 47.9 µM) |  |  |  |  |  |  |  |
| Cc1ccc(B(OC(=O)c2ncccc2O)c2ccc(C)c(Cl)c2)cc1Cl [Compound 111, Bis(3-Chloro-4-methylphenyl)borinic acid 3-hydroxypicolinate ester] |  |  |  |  |  | 1 micrograms per ml |  | 2 micrograms per ml | 64 micrograms per ml | 2 micrograms per ml | 2 micrograms per ml |  |
| O=C(O)c1ncccc1O [Compound 112, 3-hydroxypicolinic acid] |  |  |  |  |  | 2 micrograms per ml |  | 8 micrograms per ml | 64 micrograms per ml | 4 micrograms per ml | 4 micrograms per ml |  |
| O=C(O)c1ncccc1O [Compound 113, 3-hydroxypicolinic acid] |  |  |  |  |  | 1 micrograms per ml |  | 64 micrograms per ml | 64 micrograms per ml | 0.5 micrograms per ml | 2 micrograms per ml |  |
| O=C(O)c1ncccc1O [Compound 114, 3-hydroxypicolinic acid] |  |  |  |  |  | 8 micrograms per ml |  | 64 micrograms per ml | 16 micrograms per ml | 0.125 micrograms per ml | 64 micrograms per ml |  |
| O=C(O)c1ncccc1O [Compound 115, 3-hydroxypicolinic acid] |  |  |  |  |  | 2 micrograms per ml | 1 micrograms per ml | 16 micrograms per ml | 64 micrograms per ml | 2 micrograms per ml | 8 micrograms per ml |  |
| O=C(O)c1ncccc1O [Compound 116, 3-hydroxypicolinic acid] |  |  |  |  |  | 1 micrograms per ml | 0.25 micrograms per ml | 4 micrograms per ml | 64 micrograms per ml | 2 micrograms per ml | 4 micrograms per ml |  |
| O=C(O)c1ncccc1O [Compound 117, 3-hydroxypicolinic acid] |  |  |  |  |  | 1 micrograms per ml | 0.5 micrograms per ml | 4 micrograms per ml | 16 micrograms per ml | 2 micrograms per ml | 4 micrograms per ml |  |
| Cc1cc(Cl)ccc1B(OC(=O)c1ncccc1O)c1ccc(Cl)cc1C [Compound 118, bis(2-methyl-4-chlorophenyl)borinic acid 3-hydroxypicolinate ester] |  |  |  |  |  | 0.25 micrograms per ml | 0.12 micrograms per ml | 1 micrograms per ml | 16 micrograms per ml | 1 micrograms per ml | 1 micrograms per ml |  |
| CC(=O)Oc1ccc[n+]2c1C(=O)O[B-]2(c1ccc(C)c(Cl)c1)c1ccc(C)c(Cl)c1 [Compound 119] |  |  |  |  |  | 1 micrograms per ml |  | 2 micrograms per ml | 64 micrograms per ml | 2 micrograms per ml | 2 micrograms per ml |  |
| Clc1cccc(B(OCCc2c[nH]cn2)c2cccc(Cl)c2)c1 [Compound 121, Bis(3-Chlorophenyl)borinic acid 4-(hydroxyethyl)imidazole ester] |  |  |  |  |  | 4 micrograms per ml | 8 micrograms per ml | 32 micrograms per ml | 4 micrograms per ml | 0.125 micrograms per ml | 32 micrograms per ml |  |
| Nc1ccc(O)c(C(=O)O)n1 [Compound 122] | 4 µg/mL (≈ 26 µM) | 32 µg/mL (≈ 208 µM) | 8 µg/mL (≈ 51.9 µM) | 0.25 µg/mL (≈ 1.62 µM) | 32 µg/mL (≈ 208 µM) |  |  |  |  |  |  | MIC (S. pneumoniae ATCC 6301; [4]): 16 µg/mL (≈ 104 µM) |
| CC[C@H]1OC(=O)[C@H](C)[C@@H](O[C@H]2C[C@@](C)(OC)[C@@H](O)[C@H](C)O2)[C@H](C)[C@@H](O[C@@H]2O[C@H](C)C[C@H](N(C)C)[C@H]2O)[C@](C)(O)C[C@@H](C)C(=O)[C@H](C)[C@@H](O)[C@]1(C)O [Erythromycin, reference compound] | 0.5 µg/mL (≈ 0.681 µM) |  | 4 µg/mL (≈ 5.45 µM) | 0.5 µg/mL (≈ 0.681 µM) | 2 µg/mL (≈ 2.73 µM) |  |  |  |  |  |  | MIC ([1]; ATCC12228, Table 1): 0.5 µg/mL (≈ 0.681 µM); MIC (S. aureus ATCC 29213; ATCC29213, Table 1): 0.5 µg/mL (≈ 0.681 µM); MIC (E. faecalis ATCC 29212; ATCC29212, Table 1): 2 µg/mL (≈ 2.73 µM) |
| C[C@@H](O)[C@H]1C(=O)N2C(C(=O)O)=C(S[C@@H]3CN[C@H](C(=O)N(C)C)C3)[C@H](C)[C@H]12 [Meropenem, reference compound] | 0.06 µg/mL (≈ 0.156 µM) |  | 0.06 µg/mL (≈ 0.156 µM) | 0.06 µg/mL (≈ 0.156 µM) | 2 µg/mL (≈ 5.22 µM) |  |  |  |  |  |  | MIC ([1]; ATCC12228, Table 1): 0.06 µg/mL (≈ 0.156 µM); MIC (S. aureus ATCC 29213; ATCC29213, Table 1): 0.06 µg/mL (≈ 0.156 µM); MIC (E. faecalis ATCC 29212; ATCC29212, Table 1): 2 µg/mL (≈ 5.22 µM) |
| Bis(ethynyl)borinic acid 8-Hydroxyquinoline [Compound 44] |  |  |  |  |  |  |  |  |  |  |  | MIC S. epidermidis ATCC 12228 ([1]; Table 1): 1 micrograms per ml; MIC S. pneumoniae ATCC 6301 (S. pneumoniae ATCC 6301): 1 micrograms per ml; MIC M. catarrhalis ATCC 25238 [2]: 0.25 micrograms per ml; MIC E. faecium CT-26 (E. faecium CT-26; Table 1): 2 micrograms per ml; MIC S. aureus ATCC 29213 (S. aureus ATCC 29213; Table 1): 1 micrograms per ml; MIC E. faecalis ATCC 29212 (E. faecalis ATCC 29212; Table 1): 16 micrograms per ml |
